# Measurements from the supplement of paper PMC5412046.
# Structures can show the parent of a compound that is named as a salt.
# Test system: SB.msgc-1
# Assay: AC50 for growth inhibition (viability) (log10 M); higher = less potent
# Conditions: SB.msgc-1 (sporadic gastric cancer)
# Method in brief: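 In 1536-well plates, each well held 500 patient-derived gastric cancer cells (hereditary or sporadic) in 5 μL medium. Compound in DMSO, 23 nL per well, was pinned in 11 threefold dilutions starting at a final 46 μM. Following 48 h of exposure, cells had CellTiter-Glo for 30 min at room temperature before ViewLux luminescence reading. Only high-quality curve classes from four-parameter fits of DMSO-normalised viability gave the log half-maximal activity concentration.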
row,Structure (SMILES),AC50 for growth inhibition (log10 M)
1,CSCC[C@H](NC(=O)[C@H](Cc1c[nH]c2ccccc12)NC(=O)CCNC(=O)OC(C)(C)C)C(=O)N[C@@H](CC(=O)O)C(=O)N[C@@H](Cc1ccccc1)C(N)=O [Pentagastrin],-5.28
2,Cc1csc(NC(=O)c2sc3nc4c(c(C(F)(F)F)c3c2N)CCC4)n1 [Irestatin 9389],-4.68
3,CC[C@@H]1C(=O)N(C)c2cnc(Nc3ccc(C(=O)NC4CCN(C)CC4)cc3OC)nc2N1C1CCCC1 [BI-2536],-7.28
4,O=C1NC(=O)/C(=C\c2ccc(-c3ccc(F)cc3)o2)S1,-4.78
5,Nc1nc(NCCNc2ncc(-n3ccnc3)c(-c3ccc(Cl)cc3Cl)n2)ccc1[N+](=O)[O-],-5.68
6,COc1cc([C@@H]2c3cc4c(cc3[C@H](O)[C@H]3COC(=O)[C@H]23)OCO4)cc(OC)c1OC [Picropodophyllin],-8.43
7,O=C(O)c1cccc(-c2noc(-c3ccccc3F)n2)c1 [PTC-124],-4.83
8,FC1=CC=C(CN2\C=C/C=C(/C(=O)N[C@@H](COC3=CC4=C(NC(=O)N4)C=C3)C5=CC=CC=C5)C2=O)C=C1F [PDK1 inhibitor],-4.68
9,Cl.Cl.Fc1ccc(C(OCCN2CCN(CCCc3ccccc3)CC2)c2ccc(F)cc2)cc1 [Vanoxeamine],-4.73
10,CN1\C=N/C2=CC=C(NC3=CC(=CC=C3C)NC(=O)C4=CC(=CC=C4)C(C)(C)C#N)C=C2C1=O [AZ-628],-5.23
11,Cc1nc(Nc2ncc(C(=O)Nc3c(C)cccc3Cl)s2)cc(N2CCN(CCO)CC2)n1 [Dasatinib],-5.73
12,CC1CCN(c2cc(N3CCN(C)CC3)ccc2NC(=O)c2cc(C#N)c[nH]2)CC1 [c-FMS inhibitor],-4.68
13,Clc1ccccc1C(c1ccccc1)(c1ccccc1)n1ccnc1 [Clotrimazole],-4.83
14,C[S+](=O)([O-])CCNCc1ccc(-c2ccc3ncnc(Nc4ccc(OCc5cccc(F)c5)c(Cl)c4)c3c2)o1 [Lapatinib],-7.93
15,FC1=CC=C(SC/2=N/N3\C=N/C(=O)/C(=C3/C=C2)C4=C(Cl)C=CC=C4Cl)C(=C1)F [VX-745],-4.73
16,CCc1nc(-c2cccc(C)c2)c(-c2ccnc(NC(=O)c3ccccc3)c2)s1 [TAK-715],-4.78
17,N#CC[C@H](C1CCCC1)n1cc(-c2ncnc3[nH]ccc23)cn1 [Ruxolitinib],-4.73
18,CC1(C)Cc2c(sc(NC(=S)NC(=O)c3ccccc3)c2C(=O)O)CO1,-4.53
19,Cc1ccc(Nc2nccc(N(C)c3ccc4c(C)n(C)nc4c3)n2)cc1[S+](N)(=O)[O-] [Pazopanib],-4.78
20,Cc1nc(N)sc1-c1ccnc(Nc2ccc(N3CCOCC3)cc2)n1 [CYC-116],-4.63
21,CC1(COc2ccc3c(c2)ncn3-c2ccc3cccc(N4CCC(N)CC4)c3n2)COC1 [Crenolanib],-7.38
22,C[C@H](NCc1ccc2c(c1)nc(NC(=O)c1ccc(-c3cn[nH]c3)s1)n2CCc1ccccc1)C(C)(C)C,-6.03
23,c1cncc(CN2CCC(n3ncc4c(N5CCOCC5)nc(-c5ccc6[nH]ccc6c5)nc43)CC2)c1 [WAY-600],-4.63
24,CNC(=O)CN1CCC(Oc2cc3c(Nc4cccc(Cl)c4F)ncnc3cc2OC)CC1 [Sapitinib],-7.98
25,NCCCC(N)(C(=O)O)C(F)F (centres undefined) [Eflornithine Hydrochloride],-4.78

row,Structure (SMILES),AC50 for growth inhibition (log10 M)
1,CCCCCN(CCC12CC3CC(CC(C3)C1)C2)C(=O)NCCCc1ccncc1 [DE-096],-4.73
2,O=C1NC(=O)/C(=C/c2ccc3c(c2)OC(F)(F)O3)S1,-4.83
3,Cc1c(C)n(Cc2ccc(-c3ccccc3C(=O)O)cc2)c2ccc(C(=O)N[C@@H](C)c3ccc([N+](=O)[O-])cc3)cc12 [SR1664],-4.68
4,C[C@]12CC[C@H]3[C@@H](CC(=C)\C4=C\C(=O)\C=C/[C@]34C)[C@@H]1CCC2=O [Exemestane],-4.83
5,C/C(=N\NC(=S)N1CCC1)c1ccccn1,-5.73
6,NC/1=N/C(=O)N/C=C1F [Flucytosine],-4.88
7,NC(=O)c1ccc(-c2nc(-c3ccc4c(c3)OCCO4)c(-c3ccccn3)[nH]2)cc1 [D-4476],-4.73
8,N=C(N)c1ccc(OCCCCCOc2ccc(C(=N)N)cc2)cc1 [Pentamidine isethionate],-4.83
9,COc1cc(N2CCC(N3CCN(C)CC3)CC2)ccc1Nc1ncnc(Nc2ccccc2[S+](=O)([O-])C(C)C)n1 [ASP-3026],-4.88
10,CC1(C)Cc2c(-c3ccccc3)c(-c3ccc(Cl)cc3)c(CC(=O)O)n2C1 [Licofelone],-4.73
11,CC(=O)O[C@H]1C[C@@H]2CC[C@@H]3[C@H](CC[C@@]4(C)[C@H]3C[C@H]([N+]3(C)CCCCC3)[C@@H]4OC(C)=O)[C@@]2(C)C[C@@H]1[N+]1(C)CCCCC1 [Pancuronium bromide],-5.53
12,CCNC(=O)C[C@H]1/N=C(/C2=CC=C(Cl)C=C2)C3=CC(=CC=C3[N]4C(=NN=C14)C)OC,-5.03
13,CC(C)CC(=O)Nc1n[nH]c2c1CN(C(=O)C1CCN(C)CC1)C2(C)C,-5.83
14,Cc1ccccc1C(C(=O)NC1CCCC1)N(C(=O)Cn1cnc2ccccc21)c1cccc(F)c1 (centres undefined),-4.63
15,CO[C@H]1/C=C/O[C@@]2(C)Oc3c(C)c(O)c4c(c3C2=O)C2=NC3(CCN(CC(C)C)CC3)NC2=C(NC(=O)/C(C)=C\C=C\[C@H](C)[C@H](O)[C@@H](C)[C@@H](O)[C@@H](C)[C@H](OC(C)=O)[C@@H]1C)C4=O [Rifabutin],-4.63
16,OCCN(CCO)c1nc(N2CCCCC2)c2nc(N(CCO)CCO)nc(N3CCCCC3)c2n1 [Dipyridamole],-4.68
17,C[C@H](CCC(=O)O)[C@H]1CC[C@H]2[C@@H]3[C@@H](O)C[C@@H]4C[C@H](O)CC[C@]4(C)[C@H]3CC[C@]12C [Ursodiol],-5.43
18,CCOC(=O)c1ncn2c1CN(C)C(=O)c1cc(F)ccc1-2 [Flumazenil],-4.63
19,C[C@@H]1CC[C@H]2[C@@H](C)C(=O)O[C@@H]3O[C@@]4(C)CC[C@@H]1[C@]32OO4 [Artemisinin],-6.93
20,CCCOc1ccc2[nH]c(NC(=O)OC)nc2c1 [Oxibendazole],-7.83
21,Cc1cnc(C(=O)NCCc2ccc([S+](=O)([O-])NC(=O)NC3CCCCC3)cc2)cn1 [Glipizide],-4.78
22,CNC(=O)c1cc(Oc2ccc(NC(=O)Nc3cc(C(C)(C)C)nn3-c3ccc4ncccc4c3)c(F)c2)ccn1 [DCC-2036],-5.63
23,C[C@@H](Oc1cc(-n2cnc3ccc(CN4CCN(C)CC4)cc32)sc1C(N)=O)c1ccccc1C(F)(F)F,-7.13
24,Oc1ccc(C2CCN(c3ccnc4ccccc34)CC2)cc1O,-4.63
